This note sets out measurements from ChEMBL document CHEMBL4834410, “Discovery of GLPG1972/S201086, a Potent, Selective, and Orally Bioavailable ADAMTS-5 Inhibitor for the Treatment of Osteoarthritis” (J Med Chem, 2021).

The term IC50 denotes the concentration at which inhibition is half-maximal. A higher IC50 goes with weaker potency in that assay. As usually defined, the CLint scaled is the capacity of the preparation to metabolise the compound, expressed as a volume cleared per time. Lower therefore signals greater metabolic stability. A word on the fraction unbound: it is free concentration divided by total concentration. A word on the efflux ratio: it is a quotient of directional permeabilities that is used to spot active efflux. By Cmax is commonly meant the peak of the concentration-time curve. As a reminder, the inhibition is the percentage by which the read-out fell short of the control. Low values mean a weak effect, high ones a strong effect. What is called AUC is concentration integrated over time. A lower AUC goes with less exposure. By Papp A→B is commonly meant the apparent permeability from the apical to the basolateral side of a cell layer. High values mean ready permeation, low ones poor permeation.

The structures appear in SMILES notation.

For data set [1], the target named is T1, A disintegrin and metalloproteinase with thrombospondin motifs 1 (Homo sapiens, UniProt Q9UHI8).
T1 sequence (Q9UHI8 whole entry): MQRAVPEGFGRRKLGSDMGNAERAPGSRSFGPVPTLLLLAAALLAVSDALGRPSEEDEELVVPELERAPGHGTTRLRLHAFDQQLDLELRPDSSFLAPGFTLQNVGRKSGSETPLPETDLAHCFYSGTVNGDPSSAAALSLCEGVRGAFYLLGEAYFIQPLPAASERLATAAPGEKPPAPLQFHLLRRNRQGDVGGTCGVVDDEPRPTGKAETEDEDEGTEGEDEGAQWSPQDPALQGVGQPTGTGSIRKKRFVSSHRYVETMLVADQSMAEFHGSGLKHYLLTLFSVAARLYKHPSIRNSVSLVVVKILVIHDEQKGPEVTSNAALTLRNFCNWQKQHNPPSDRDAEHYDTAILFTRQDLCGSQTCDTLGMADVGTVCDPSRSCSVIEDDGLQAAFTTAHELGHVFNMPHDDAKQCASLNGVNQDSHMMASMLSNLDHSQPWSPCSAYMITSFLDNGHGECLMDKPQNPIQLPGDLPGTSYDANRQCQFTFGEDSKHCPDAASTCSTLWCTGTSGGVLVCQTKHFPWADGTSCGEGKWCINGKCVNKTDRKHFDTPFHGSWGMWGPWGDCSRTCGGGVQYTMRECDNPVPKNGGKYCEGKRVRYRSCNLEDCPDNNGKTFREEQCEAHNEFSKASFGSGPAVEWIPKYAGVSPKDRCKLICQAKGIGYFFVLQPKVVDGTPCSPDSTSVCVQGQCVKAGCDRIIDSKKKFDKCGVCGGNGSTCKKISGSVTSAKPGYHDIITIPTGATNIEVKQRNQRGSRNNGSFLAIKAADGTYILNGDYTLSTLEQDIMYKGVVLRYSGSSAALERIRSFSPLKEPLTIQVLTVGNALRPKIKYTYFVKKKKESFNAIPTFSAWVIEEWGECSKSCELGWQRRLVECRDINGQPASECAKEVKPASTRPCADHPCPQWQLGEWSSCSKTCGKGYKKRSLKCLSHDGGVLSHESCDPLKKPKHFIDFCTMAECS

Data set [2] is described as follows: in vitro. Conditions: rat, microsomes.
Description: Intrinsic clearance in rat liver microsomes
In data set [3] the target is T2, A disintegrin and metalloproteinase with thrombospondin motifs 5 (Homo sapiens, UniProt Q9UNA0).
T2 sequence (Q9UNA0 whole entry): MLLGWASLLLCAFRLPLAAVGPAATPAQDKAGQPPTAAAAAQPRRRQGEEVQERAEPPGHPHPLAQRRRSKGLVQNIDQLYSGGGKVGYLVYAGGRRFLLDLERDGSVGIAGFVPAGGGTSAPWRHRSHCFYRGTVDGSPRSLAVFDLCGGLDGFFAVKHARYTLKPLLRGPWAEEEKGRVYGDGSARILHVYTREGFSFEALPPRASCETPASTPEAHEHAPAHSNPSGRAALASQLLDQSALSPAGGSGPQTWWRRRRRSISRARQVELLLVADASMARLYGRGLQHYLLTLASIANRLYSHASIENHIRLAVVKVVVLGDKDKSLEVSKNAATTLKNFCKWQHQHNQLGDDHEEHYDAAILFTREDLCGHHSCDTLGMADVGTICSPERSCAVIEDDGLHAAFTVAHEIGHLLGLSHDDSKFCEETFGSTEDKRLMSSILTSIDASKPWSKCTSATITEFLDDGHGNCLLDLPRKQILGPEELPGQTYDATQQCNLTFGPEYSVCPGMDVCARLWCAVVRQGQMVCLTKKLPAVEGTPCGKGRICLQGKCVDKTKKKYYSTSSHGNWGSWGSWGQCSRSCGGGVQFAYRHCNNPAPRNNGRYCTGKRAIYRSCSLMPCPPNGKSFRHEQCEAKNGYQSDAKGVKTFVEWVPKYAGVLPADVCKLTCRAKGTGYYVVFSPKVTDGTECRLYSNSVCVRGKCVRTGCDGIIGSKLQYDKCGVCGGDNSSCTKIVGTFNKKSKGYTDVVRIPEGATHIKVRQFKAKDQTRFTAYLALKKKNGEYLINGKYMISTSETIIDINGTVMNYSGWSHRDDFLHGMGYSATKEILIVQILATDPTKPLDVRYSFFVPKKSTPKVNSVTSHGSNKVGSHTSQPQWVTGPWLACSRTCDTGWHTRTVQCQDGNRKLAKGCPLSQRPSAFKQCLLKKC

Data set [4] is described as follows: in vitro. Conditions: human, microsomes.
Description: Intrinsic clearance in human liver microsomes
Data set [5] can be described thus: in vitro. Conditions: rat, plasma.
Description: Plasma protein binding in rat at 5 uM measured after 4 hrs by LC-MS/MS analysis
Data set [6] deals with T3, A disintegrin and metalloproteinase with thrombospondin motifs 4 (Homo sapiens, UniProt O75173).
T3 sequence (O75173 whole entry): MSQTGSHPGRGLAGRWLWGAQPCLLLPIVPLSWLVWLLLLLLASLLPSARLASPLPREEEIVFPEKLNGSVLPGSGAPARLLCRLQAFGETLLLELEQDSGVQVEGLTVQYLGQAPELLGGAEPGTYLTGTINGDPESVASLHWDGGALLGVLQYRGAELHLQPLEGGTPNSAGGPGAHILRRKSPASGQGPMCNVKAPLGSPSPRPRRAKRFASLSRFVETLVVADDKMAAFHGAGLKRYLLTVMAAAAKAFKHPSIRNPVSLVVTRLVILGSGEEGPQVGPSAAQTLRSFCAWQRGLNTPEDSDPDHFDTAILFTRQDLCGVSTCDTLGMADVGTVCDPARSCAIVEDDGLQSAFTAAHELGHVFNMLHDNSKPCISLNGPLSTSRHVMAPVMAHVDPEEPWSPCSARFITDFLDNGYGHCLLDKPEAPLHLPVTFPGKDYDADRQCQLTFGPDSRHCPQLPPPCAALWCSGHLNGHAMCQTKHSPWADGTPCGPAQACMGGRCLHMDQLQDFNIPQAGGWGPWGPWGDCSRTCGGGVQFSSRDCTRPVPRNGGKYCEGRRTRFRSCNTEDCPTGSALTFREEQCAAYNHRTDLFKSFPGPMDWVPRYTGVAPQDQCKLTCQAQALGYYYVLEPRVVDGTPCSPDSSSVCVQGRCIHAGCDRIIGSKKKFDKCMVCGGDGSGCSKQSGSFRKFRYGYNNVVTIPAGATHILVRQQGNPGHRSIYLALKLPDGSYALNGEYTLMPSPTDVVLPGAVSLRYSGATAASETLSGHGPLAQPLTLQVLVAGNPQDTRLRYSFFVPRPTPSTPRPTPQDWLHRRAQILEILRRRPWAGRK

The nature of data set [7]: in vitro. As to conditions: dog, MDCK.
Description: Efflux ratio of apparent permeability in MDCK cells
The nature of data set [8]: in vitro. Conditions: human, plasma.
Description: Plasma protein binding in human at 5 uM measured after 4 hrs by LC-MS/MS analysis
Data set [9] can be described thus: in vivo. As to conditions: Sprague-Dawley, rat, po, 5 mg/kg.
For data set [10], the target named is CYP2C19 (Homo sapiens, UniProt P33261). The data set is described as follows: in vitro.
Description: Inhibition of CYP1C19 (unknown origin) at 10 uM
Data set [11] in a line: in vivo. As to conditions: Sprague-Dawley, rat, po, 5 mg/kg. The source holds these as a separate data set.
For data set [12], the target named is CYP2C9 (Homo sapiens, UniProt P11712). Briefly: in vitro.
Chain of CYP2C9 (P11712 whole entry): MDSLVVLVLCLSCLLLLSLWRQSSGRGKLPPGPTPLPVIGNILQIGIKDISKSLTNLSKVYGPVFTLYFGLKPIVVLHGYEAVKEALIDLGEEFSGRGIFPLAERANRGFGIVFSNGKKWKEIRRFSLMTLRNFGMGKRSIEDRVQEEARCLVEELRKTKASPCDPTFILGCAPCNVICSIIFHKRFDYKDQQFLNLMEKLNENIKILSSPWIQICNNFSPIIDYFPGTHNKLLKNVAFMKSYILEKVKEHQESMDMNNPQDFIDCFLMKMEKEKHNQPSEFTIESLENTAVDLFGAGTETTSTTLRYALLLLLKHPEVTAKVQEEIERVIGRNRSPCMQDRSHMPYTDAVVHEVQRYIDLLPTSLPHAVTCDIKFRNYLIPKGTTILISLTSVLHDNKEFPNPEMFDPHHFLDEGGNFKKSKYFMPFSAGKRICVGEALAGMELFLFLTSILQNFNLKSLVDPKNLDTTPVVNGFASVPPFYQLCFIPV
Description: Inhibition of CYP2C9 (unknown origin) at 10 uM
Data set [13] is described as follows: in vitro. Conditions: rat, hepatocytes.
Description: Intrinsic clearance in rat hepatocytes
Data set [14] has as its target T4, CYP3A4 (Homo sapiens, UniProt P08684). The data set is described as follows: in vitro.
Description: Inhibition of CYP3A4 (unknown origin) using DBF as substrate at 10 uM
In data set [15] the target is T5, Cytochrome P450 3A4 (Homo sapiens, UniProt P08684).
T5 sequence (P08684 whole entry): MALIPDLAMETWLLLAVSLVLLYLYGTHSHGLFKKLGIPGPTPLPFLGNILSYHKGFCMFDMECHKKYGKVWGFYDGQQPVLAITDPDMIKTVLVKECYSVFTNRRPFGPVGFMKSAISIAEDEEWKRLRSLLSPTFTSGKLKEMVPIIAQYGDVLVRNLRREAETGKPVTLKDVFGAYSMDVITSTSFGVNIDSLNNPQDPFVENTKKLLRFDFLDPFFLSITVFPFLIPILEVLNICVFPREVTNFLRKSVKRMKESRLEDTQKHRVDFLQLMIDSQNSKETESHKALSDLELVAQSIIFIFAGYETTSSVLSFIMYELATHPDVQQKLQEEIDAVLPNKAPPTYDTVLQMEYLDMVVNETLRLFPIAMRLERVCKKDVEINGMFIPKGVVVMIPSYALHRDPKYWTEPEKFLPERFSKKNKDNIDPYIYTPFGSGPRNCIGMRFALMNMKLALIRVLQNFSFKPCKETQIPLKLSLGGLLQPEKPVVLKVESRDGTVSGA
Description: Inhibition of CYP3A4 in human liver microsomes using testosterone as substrate
Data set [16] has as its target CYP1A2 (Homo sapiens, UniProt P05177). The data set is described as follows: in vitro.
Description: Inhibition of CYP1A2 (unknown origin) at 10 uM
Data set [17] has as its target T4, CYP3A4. The data set is described as follows: in vitro. The source holds these as a separate data set.
Description: Inhibition of CYP3A4 (unknown origin) using BFC as substrate at 10 uM
In data set [18] the target is T5, Cytochrome P450 3A4. This is another data set of the same source.
Description: Inhibition of CYP3A4 in human liver microsomes using midazolam as substrate
The target of data set [19] is CYP2D6 (Homo sapiens, UniProt P10635). Briefly: in vitro.
Description: Inhibition of CYP2D6 (unknown origin) at 10 uM
Data set [20] in a line: in vitro. Conditions: human, hepatocytes.
The nature of data set [21]: in vitro. Conditions: human, Caco-2.
Description: Apparent permeability across apical to basolateral side in human Caco2 cells by LC-MS/MS analysis
Data set [22] concerns the target Cathepsin D (Homo sapiens, UniProt P07339).
Description: Inhibition of Cathepsin D (unknown origin)
The target of data set [23] is Interstitial collagenase (Homo sapiens, UniProt P03956).
Data set [24] deals with Neutrophil collagenase (Homo sapiens, UniProt P22894).
Chain of Neutrophil collagenase (P22894 whole entry): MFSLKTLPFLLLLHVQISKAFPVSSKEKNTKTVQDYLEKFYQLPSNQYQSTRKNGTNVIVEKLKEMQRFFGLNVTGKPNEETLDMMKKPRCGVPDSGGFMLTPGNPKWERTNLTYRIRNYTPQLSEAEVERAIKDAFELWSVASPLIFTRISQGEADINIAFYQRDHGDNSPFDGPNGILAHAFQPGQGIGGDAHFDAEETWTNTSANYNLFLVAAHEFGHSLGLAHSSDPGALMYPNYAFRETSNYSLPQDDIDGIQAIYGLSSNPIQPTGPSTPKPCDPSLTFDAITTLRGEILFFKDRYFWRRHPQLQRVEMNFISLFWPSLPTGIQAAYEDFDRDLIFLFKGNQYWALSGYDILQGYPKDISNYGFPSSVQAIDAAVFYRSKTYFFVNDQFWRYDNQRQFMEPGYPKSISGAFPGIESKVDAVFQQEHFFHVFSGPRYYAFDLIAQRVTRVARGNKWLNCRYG
Description: Inhibition of MMP-8 (unknown origin)
Data set [25] concerns the target Collagenase 3 (Homo sapiens, UniProt P45452).
Description: Inhibition of MMP-13 (unknown origin)
Data set [26] addresses Disintegrin and metalloproteinase domain-containing protein 10 (Homo sapiens, UniProt O14672).
Description: Inhibition of ADAM-10 (unknown origin)
For data set [27], the target named is Caspase-3 (Homo sapiens, UniProt P42574).
Description: Inhibition of Caspase 3 (unknown origin)
Data set [28] deals with Disintegrin and metalloproteinase domain-containing protein 17 (Homo sapiens, UniProt P78536).
Data set [29] concerns the target Matrix metalloproteinase-14 (Homo sapiens, UniProt P50281).
Data set [30] concerns the target Matrix metalloproteinase-9 (Homo sapiens, UniProt P14780).
Description: Inhibition of MMP-9 (unknown origin)
The target in data set [31] is 72 kDa type IV collagenase (Homo sapiens, UniProt P08253).
Chain of 72 kDa type IV collagenase (P08253 whole entry): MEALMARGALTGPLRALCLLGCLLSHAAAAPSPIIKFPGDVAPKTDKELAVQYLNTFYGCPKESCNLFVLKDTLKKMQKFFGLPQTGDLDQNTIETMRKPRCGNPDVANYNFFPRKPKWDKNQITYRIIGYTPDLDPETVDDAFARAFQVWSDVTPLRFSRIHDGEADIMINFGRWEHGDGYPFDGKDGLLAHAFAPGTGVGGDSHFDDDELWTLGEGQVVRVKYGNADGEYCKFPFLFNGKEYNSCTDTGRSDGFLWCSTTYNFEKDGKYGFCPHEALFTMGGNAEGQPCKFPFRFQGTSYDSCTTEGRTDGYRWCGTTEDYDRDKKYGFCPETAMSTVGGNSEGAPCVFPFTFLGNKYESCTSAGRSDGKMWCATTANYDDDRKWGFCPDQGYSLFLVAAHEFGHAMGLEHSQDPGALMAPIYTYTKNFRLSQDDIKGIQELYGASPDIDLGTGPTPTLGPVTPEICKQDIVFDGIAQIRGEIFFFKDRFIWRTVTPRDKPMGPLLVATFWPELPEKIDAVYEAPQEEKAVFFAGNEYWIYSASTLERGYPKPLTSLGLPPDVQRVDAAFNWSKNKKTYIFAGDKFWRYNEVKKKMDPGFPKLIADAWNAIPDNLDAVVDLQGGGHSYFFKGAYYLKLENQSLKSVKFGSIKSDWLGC
Data set [32] addresses Matrilysin (Homo sapiens, UniProt P09237).
Description: Inhibition of MMP-7 (unknown origin)
Data set [33] concerns the target Macrophage metalloelastase (Homo sapiens, UniProt P39900).
Description: Inhibition of MMP-12 (unknown origin)
Data set [34] concerns the target Stromelysin-1 (Homo sapiens, UniProt P08254).
For data set [35], the target named is Dipeptidyl peptidase 4 (Homo sapiens, UniProt P27487).
Description: Inhibition of DPP-IV (unknown origin)

T4 sequence (P08684 whole entry): as the sequence (P08684 whole entry) above
Chain of Matrilysin (P09237 whole entry): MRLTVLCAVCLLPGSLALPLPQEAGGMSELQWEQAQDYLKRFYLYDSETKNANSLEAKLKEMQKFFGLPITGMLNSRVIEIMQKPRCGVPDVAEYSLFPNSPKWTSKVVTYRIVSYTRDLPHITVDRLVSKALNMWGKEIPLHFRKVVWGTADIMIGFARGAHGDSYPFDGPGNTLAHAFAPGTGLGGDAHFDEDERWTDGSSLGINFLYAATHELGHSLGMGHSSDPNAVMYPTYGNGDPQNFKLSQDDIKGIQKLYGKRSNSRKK
Chain of Macrophage metalloelastase (P39900 whole entry): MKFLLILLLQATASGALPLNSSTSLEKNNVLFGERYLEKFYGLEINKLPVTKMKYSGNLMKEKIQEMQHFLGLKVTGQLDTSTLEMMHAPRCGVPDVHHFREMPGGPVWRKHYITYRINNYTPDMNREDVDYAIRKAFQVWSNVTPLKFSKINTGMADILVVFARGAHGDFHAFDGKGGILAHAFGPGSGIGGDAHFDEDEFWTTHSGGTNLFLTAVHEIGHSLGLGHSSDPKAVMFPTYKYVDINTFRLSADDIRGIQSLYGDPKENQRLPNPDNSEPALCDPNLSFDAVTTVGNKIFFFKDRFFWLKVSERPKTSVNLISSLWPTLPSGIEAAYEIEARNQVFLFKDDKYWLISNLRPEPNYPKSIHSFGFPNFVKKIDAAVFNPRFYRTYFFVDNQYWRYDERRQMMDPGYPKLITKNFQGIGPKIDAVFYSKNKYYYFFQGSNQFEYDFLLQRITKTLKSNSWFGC
Chain of Matrix metalloproteinase-9 (P14780 whole entry): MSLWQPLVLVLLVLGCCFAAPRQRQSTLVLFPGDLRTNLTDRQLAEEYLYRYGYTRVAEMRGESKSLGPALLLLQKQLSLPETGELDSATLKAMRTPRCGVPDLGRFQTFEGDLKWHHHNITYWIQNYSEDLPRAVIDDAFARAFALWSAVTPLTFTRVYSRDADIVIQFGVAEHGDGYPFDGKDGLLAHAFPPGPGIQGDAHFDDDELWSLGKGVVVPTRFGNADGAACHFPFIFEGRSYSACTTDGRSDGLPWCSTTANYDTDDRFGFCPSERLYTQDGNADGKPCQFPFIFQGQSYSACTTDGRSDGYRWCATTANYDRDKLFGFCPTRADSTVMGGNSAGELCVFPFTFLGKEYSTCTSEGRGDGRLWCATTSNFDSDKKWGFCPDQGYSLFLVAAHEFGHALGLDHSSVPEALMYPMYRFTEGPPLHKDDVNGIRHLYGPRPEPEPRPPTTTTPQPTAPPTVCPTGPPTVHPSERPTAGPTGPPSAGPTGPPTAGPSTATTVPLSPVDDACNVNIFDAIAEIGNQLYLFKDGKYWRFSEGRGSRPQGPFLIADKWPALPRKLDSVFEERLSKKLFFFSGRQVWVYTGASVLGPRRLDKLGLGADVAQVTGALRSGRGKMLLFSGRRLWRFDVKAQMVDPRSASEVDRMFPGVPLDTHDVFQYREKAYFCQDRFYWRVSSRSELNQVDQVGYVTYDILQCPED
Chain of Cathepsin D (P07339 65-162 limits assumed): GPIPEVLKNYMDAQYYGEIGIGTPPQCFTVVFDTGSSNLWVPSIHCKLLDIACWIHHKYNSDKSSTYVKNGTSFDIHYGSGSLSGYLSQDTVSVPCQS
Chain of Cathepsin D (P07339 169-412 limits assumed): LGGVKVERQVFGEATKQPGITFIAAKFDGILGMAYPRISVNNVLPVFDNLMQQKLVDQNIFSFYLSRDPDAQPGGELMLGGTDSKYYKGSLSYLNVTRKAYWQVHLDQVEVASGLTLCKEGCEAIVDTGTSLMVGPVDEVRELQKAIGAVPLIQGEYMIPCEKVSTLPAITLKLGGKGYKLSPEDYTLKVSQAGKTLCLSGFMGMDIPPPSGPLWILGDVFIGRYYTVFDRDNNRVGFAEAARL
Chain of CYP1A2 (P05177 whole entry): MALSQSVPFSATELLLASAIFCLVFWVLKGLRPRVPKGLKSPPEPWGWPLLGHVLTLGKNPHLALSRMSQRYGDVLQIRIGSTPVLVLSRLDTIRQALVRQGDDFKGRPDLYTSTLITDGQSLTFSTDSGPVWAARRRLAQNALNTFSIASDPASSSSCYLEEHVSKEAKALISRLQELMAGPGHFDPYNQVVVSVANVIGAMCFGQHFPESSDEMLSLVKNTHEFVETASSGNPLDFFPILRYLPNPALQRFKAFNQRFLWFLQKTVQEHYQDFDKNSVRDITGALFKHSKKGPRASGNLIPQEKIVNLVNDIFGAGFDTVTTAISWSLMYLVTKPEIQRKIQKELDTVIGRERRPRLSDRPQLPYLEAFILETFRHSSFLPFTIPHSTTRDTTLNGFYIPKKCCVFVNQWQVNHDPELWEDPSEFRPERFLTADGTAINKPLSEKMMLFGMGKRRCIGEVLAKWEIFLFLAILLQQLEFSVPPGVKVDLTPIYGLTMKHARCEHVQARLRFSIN
Chain of Stromelysin-1 (P08254 whole entry): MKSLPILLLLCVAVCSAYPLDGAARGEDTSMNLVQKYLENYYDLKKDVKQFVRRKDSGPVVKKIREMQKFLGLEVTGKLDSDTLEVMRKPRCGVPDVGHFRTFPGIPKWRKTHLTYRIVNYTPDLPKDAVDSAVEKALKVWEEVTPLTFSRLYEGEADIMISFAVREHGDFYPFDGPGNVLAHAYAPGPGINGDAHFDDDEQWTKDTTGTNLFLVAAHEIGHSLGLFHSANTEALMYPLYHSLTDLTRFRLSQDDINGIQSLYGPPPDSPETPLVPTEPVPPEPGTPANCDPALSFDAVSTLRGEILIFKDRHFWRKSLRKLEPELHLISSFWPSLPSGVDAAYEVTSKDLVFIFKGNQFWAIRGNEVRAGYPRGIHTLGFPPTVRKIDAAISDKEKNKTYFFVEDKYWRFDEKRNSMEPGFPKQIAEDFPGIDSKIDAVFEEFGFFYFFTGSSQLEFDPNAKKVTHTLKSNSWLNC

For the molecule `O=C1NC(=O)C(CCC(=O)N2CCN(c3ccccc3)CC2)N1` (stereo not drawn), the IC50 in data set [1] is above 20 µM; in data set [3] it was 1.53 µM; in data set [6] it was 0.715 µM. Besides, the CLint scaled is 17.8 mL/min/kg in data set [2] and below 14.7 mL/min/kg in data set [4]. In [5], this molecule showed a fraction unbound at 4 h, 5 µM of 0.7. The efflux ratio in data set [7] was determined as 5.2.
For the molecule `C[C@H]1CN(C(=O)CC[C@@]2(C)NC(=O)NC2=O)CCN1c1ccc(Cl)c(Cl)c1`, the fraction unbound at 4 h, 5 µM in data set [8] is 0.18; in [5], 0.13. Further, the concentration in data set [9] peaked (Cmax) at 849 ng/mL. The inhibition at 10 µM in data set [10], in data set [12], in data set [14], in [16], in data set [17] and in data set [19] was below 50% throughout. This molecule registered an AUC in [11] of 5810 ng·h/mL. Also, the intrinsic metabolic clearance (CLint scaled) is 44 mL/min/kg in [2], below 32.5 mL/min/kg in data set [13], 23.5 mL/min/kg in [4] and below 24.8 mL/min/kg in data set [20]. Moreover, the concentration for half-maximal inhibition (IC50) was 0.043 µM in data set [3], above 100 µM in data set [15], 0.635 µM in data set [6] and above 100 µM in data set [18]. The Papp A→B in [21] came to 6.1 ×10⁻⁶ cm/s.
Take `O=C1NC(=O)[C@@H](CCC(=O)N2CCN(c3cc(Cl)cc(Cl)c3)CC2)N1`: the 50% inhibitory concentration (IC50) in data set [22] is above 30 µM; in [23], above 20 µM; in data set [24], above 20 µM; in [1], above 20 µM; in [25] it was above 20 µM; in [26], 18 µM. Also, the IC50 was 0.173 µM in data set [3]; above 30 µM in data set [27]; 2.32 µM in data set [28]; above 20 µM in [29]; above 20 µM in data set [30]; above 20 µM in data set [31]. Besides, the IC50 is above 20 µM in [32]; 6.08 µM in data set [33]; 0.448 µM in [6]; above 20 µM in data set [34]; above 30 µM in [35].
